This is an account of results in patent publication US11203571B2, “Sulfonamides as modulators of sodium channels” (VERTEX PHARMACEUTICALS INCORPORATED, priority 2013, dated 2021).

pIC50: −log10 of the molar value.

In data set [1] the target is human Nav1.8 (Homo sapiens (Human), UniProt Q9Y5Y9). The data set can be described thus: E-VIPR optical membrane potential assay with electrical stimulation. In kind it is cell-based. As to conditions: HEK cells expressing human Nav1.8. Put shortly:
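HEK cells expressing human Nav1.8 were loaded with CC2-DMPE (8 μM) and DiSBAC6(3) (2.5 μM), then given compound for 20-35 min at room temperature (0.625% DMSO). Cells received a 10-s current-controlled electrical stimulus. Response was the stimulated/baseline 460/580 nm emission ratio (Rf/Ri), with tetracaine (125 μM) as positive control.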

A short description of data set [2]: Human liver microsome assay. In kind it is in vitro ADME. As to conditions: 1 uM substrate, 0.5 mg/mL liver microsome, 2 mM NADPH, 37° C., referenced against time zero control. Put shortly:
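Pooled human liver microsomes (0.5 mg/mL) with 1 uM substrate (0.2% DMSO), 2 mM NADPH, 0.1 M phosphate, shaken 30 min at 37° C. Quenched with cold acetonitrile; parent quantified by LC/MS/MS. Value is % substrate remaining at 30 min versus a time-zero control without NADPH.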

Chain of human Nav1.8 (Q9Y5Y9 whole entry): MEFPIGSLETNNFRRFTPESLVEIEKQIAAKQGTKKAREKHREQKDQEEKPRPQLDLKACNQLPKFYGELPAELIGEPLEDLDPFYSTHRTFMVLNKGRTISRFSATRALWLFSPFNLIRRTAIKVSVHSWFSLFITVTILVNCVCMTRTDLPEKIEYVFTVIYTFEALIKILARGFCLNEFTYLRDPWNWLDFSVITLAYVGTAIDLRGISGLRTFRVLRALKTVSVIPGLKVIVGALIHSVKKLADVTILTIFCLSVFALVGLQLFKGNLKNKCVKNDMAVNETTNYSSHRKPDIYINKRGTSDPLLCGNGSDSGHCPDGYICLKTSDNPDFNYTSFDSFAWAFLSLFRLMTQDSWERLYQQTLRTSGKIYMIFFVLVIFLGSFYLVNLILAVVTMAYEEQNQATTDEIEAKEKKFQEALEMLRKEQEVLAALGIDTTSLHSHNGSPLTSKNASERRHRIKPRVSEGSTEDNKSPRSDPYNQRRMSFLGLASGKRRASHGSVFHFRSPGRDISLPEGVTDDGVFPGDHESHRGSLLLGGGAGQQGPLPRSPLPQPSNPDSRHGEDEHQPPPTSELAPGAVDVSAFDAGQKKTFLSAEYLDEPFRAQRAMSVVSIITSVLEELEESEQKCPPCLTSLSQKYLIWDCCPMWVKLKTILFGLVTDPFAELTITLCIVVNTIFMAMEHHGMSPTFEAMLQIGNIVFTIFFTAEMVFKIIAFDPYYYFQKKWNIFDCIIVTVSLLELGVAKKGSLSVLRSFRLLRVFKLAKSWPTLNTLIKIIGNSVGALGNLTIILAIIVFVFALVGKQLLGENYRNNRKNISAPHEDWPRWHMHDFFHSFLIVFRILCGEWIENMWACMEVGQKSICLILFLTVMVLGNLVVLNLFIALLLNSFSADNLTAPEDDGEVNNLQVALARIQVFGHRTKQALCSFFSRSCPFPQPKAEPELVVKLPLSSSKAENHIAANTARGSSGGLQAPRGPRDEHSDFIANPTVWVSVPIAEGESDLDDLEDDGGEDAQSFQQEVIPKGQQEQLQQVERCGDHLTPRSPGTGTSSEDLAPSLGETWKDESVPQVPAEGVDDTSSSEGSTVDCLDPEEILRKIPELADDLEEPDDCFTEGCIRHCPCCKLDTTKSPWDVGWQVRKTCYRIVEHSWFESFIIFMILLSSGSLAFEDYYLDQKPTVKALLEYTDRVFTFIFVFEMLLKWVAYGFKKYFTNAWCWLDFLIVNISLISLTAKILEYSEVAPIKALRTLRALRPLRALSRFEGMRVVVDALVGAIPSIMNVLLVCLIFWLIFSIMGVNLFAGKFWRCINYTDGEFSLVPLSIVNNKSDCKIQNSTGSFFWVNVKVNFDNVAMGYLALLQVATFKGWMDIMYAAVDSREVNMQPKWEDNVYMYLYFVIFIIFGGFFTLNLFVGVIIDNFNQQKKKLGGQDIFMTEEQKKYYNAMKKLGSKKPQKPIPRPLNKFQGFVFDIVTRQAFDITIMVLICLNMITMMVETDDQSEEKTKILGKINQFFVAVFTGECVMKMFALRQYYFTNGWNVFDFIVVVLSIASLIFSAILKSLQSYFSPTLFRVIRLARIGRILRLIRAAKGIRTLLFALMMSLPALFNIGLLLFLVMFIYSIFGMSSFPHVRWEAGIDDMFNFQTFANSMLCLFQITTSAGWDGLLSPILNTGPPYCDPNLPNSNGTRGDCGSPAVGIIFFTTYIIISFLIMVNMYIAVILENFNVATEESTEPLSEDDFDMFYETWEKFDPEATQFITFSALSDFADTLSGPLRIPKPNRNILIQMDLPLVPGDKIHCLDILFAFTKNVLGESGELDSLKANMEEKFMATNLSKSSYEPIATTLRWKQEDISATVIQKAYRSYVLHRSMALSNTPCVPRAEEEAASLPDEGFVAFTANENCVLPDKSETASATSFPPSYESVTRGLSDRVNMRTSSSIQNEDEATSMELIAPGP

As a reminder, the pIC50 is −log10 of the IC50, conventionally taken in molar units. As for `COc1cc(F)ccc1Oc1cc(Cl)cc(Cl)c1C(=O)Nc1cccc(S(N)(=O)=O)c1` [Compound 95, 2,4-dichloro-6-(4-fluoro-2-methoxyphenoxy)-N-(3-sulfamoylphenyl)benzamide], the negative-log IC50 (pIC50) in data set [1] is 9.05. For the same molecule, in data set [2], the “HLM: percent unchanged after 30 min” value is 91%.
`Cc1cc(F)ccc1Oc1cc(Cl)cc(Cl)c1C(=O)Nc1cccc(S(N)(=O)=O)c1` [Compound 96, 2,4-dichloro-6-(4-fluoro-2-methylphenoxy)-N-(3-sulfamoylphenyl)benzamide] had a negative-log IC50 (pIC50) in data set [1] of 9.00. Also, the “HLM: percent unchanged after 30 min” value in data set [2] stood at 96%.
`NS(=O)(=O)c1cccc(NC(=O)c2c(Cl)cc(Cl)cc2Oc2ccc(OC(F)(F)F)cc2)c1` [Compound 97, 2,4-dichloro-N-(3-sulfamoylphenyl)-6-(4-(trifluoromethoxy)phenoxy)benzamide]: the pIC50 in data set [1] was 8.40. Moreover, the “HLM: percent unchanged after 30 min” value in data set [2] is listed as 102%.
Consider `COc1cc(Cl)ccc1Oc1cc(Cl)cc(Cl)c1C(=O)Nc1cccc(S(N)(=O)=O)c1` [Compound 98, 2,4-dichloro-6-(4-chloro-2-methoxyphenoxy)-N-(3-sulfamoylphenyl)benzamide], for which the pIC50 in data set [1] is 9.10. Moreover, in data set [2], the “HLM: percent unchanged after 30 min” value was 62%.
Take `COc1ccc(Oc2cc(Cl)cc(Cl)c2C(=O)Nc2cccc(S(N)(=O)=O)c2)c(F)c1` [Compound 99, 2,4-dichloro-6-(2-fluoro-4-methoxyphenoxy)-N-(3-sulfamoylphenyl)benzamide]: the pIC50 in data set [1] is 8.30. In addition, the “HLM: percent unchanged after 30 min” value in data set [2] was 63%.
